Measured values published in PubChem BioAssay (NCI).
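How tested: cells in 96-well plates exposed to compound for 48 hours at five concentrations. TGI: concentration producing complete growth inhibition.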

Legend:
Assay in all cases: inhibition of tumour cell growth, NCI panel, 48 h
NCI-H522 lung = tested on: NCI-H522 lung
A498 renal = tested on: A498 renal
786-0 renal = tested on: 786-0 renal
MDA-MB-231 breast = tested on: MDA-MB-231 breast
SF-268 CNS = tested on: SF-268 CNS
HCC-2998 colon = tested on: HCC-2998 colon
NCI-H460 lung = tested on: NCI-H460 lung
SW-620 colon = tested on: SW-620 colon
KM12 colon = tested on: KM12 colon
OVCAR-5 ovarian = tested on: OVCAR-5 ovarian
SNB-19 CNS = tested on: SNB-19 CNS
HOP-92 NSCLC = tested on: HOP-92 NSCLC
M14 melanoma = tested on: M14 melanoma
SK-MEL-28 melanoma = tested on: SK-MEL-28 melanoma
SF-295 CNS = tested on: SF-295 CNS
BT-549 breast = tested on: BT-549 breast
SR leukemia = tested on: SR leukemia
HOP-62 NSCLC = tested on: HOP-62 NSCLC
SNB-75 CNS = tested on: SNB-75 CNS
MOLT-4 leukemia = tested on: MOLT-4 leukemia

| Compound | TGI (NCI-H522 lung) [µM] | TGI (A498 renal) [µM] | TGI (786-0 renal) [µM] | TGI (MDA-MB-231 breast) [µM] | TGI (SF-268 CNS) [µM] | TGI (HCC-2998 colon) [µM] | TGI (NCI-H460 lung) [µM] | TGI (SW-620 colon) [µM] | TGI (KM12 colon) [µM] | TGI (OVCAR-5 ovarian) [µM] | TGI (SNB-19 CNS) [µM] | TGI (HOP-92 NSCLC) [µM] | TGI (M14 melanoma) [µM] | TGI (SK-MEL-28 melanoma) [µM] | TGI (SF-295 CNS) [µM] | TGI (BT-549 breast) [µM] | TGI (SR leukemia) [µM] | TGI (HOP-62 NSCLC) [µM] | TGI (SNB-75 CNS) [µM] | TGI (MOLT-4 leukemia) [µM] |
| --- | --- | --- | --- | --- | --- | --- | --- | --- | --- | --- | --- | --- | --- | --- | --- | --- | --- | --- | --- | --- |
| Cc1ccc(S(=O)(=O)N2CCC(=O)c3cc(Br)ccc32)cc1 | > 55.6 | 30.1 | > 67.2 | > 54.5 | > 94.8 | > 54.1 | > 55.4 | > 100 | > 26.1 | > 100 | 99.4 | 98.9 | > 67 | > 100 | 55.7 | > 88.9 | > 100 | 59.7 | 59.6 | > 26.6 |
| CC(CC[C@@H](O)C(C)(C)O)C1[C@@H](O)CC2(C)C3CC(O)C4C(C)(C)[C@@H](OC5OC(CO)C(O)C(O)C5O)CC[C@@]45C[C@@]35CC[C@]12C (stereo not given in full) | > 10 | > 10 | > 10 | > 10 | > 10 | > 10 | > 10 | > 10 | > 10 | > 10 | > 10 | > 10 | > 10 | > 10 | > 10 | > 10 | > 10 | > 10 | > 10 | > 10 |
| O=C(NNC(=S)Nc1ccccc1)c1cc(-c2ccccc2)nc2ccccc12 | 52.6 | 28 | 30 | 52.5 | 76.3 | 30.5 | > 100 | 49.9 | > 100 | 36.3 | > 100 | 37.7 | 30.5 | 59.5 | 27.4 | 49.6 | 32.9 | 33.3 | 71.3 | 32.2 |
| CC[C@H](CCCC[C@H]1CC[C@@H]2CC(=O)C[C@H]12)OC | > 100 | > 100 | > 100 | > 100 | > 100 | > 100 | > 100 | > 100 | > 100 | > 100 | > 100 | > 100 | > 100 | > 100 | > 100 | > 100 | > 100 | > 100 | > 100 | > 100 |
| c1ccc(-c2nnc(-c3ccccn3)c3c2C[C@@H]2C[C@@H]4Cc5c(-c6ccccn6)nnc(-c6ccccn6)c5[C@@H]4[C@H]32)nc1 | > 100 | 6.35 | > 100 | > 100 | > 100 | > 100 | 88 | > 100 | > 100 | > 100 | > 100 | > 100 | 43.6 | 75.9 | > 100 | > 100 | > 100 | > 100 | > 100 | > 100 |
| Cn1c(=O)c2c(nc3n(CCCCl)c(=O)ccn23)n(C)c1=O | > 100 | > 100 | > 100 | > 100 | > 100 | > 100 | > 100 | > 100 | > 100 | > 100 | > 100 | > 100 | > 100 | > 100 | > 100 | > 100 | > 100 | > 100 | > 100 | > 100 |
| O=C1NCC(CSc2nc3cc(C4CCCc5c4[nH]c4ccccc54)ccc3o2)N1 (stereo not given) | > 100 | 50.6 | > 100 | > 100 | > 100 | > 100 | > 100 | > 100 | > 100 | > 100 | > 100 | 71.2 | > 100 | > 100 | > 100 | > 100 | > 100 | > 100 | > 100 | > 100 |
| Cc1ccc([N+](=O)[O-])cc1S(=O)(=O)Nc1ccc(C2=NOC(c3ccco3)C2)cc1 (stereo not given) | 32.7 | 34.6 | 34.9 | 33.1 | 97.1 | 31.9 | 37.2 | 58.9 | 24.7 | 52.2 | 37.9 | 88.9 | 32.8 | 43.5 | 46.5 | 39.2 | 23.8 | 30.8 | 35.7 | 46.6 |
| COc1ccc([C@H]2CC(=O)C[C@H](c3ccc(OC)cc3)C23C(=O)c2ccccc2C3=O)cc1 | 18.6 | > 100 | > 100 | > 100 | > 100 | 32.6 | > 100 | > 100 | > 100 | > 100 | > 100 | > 100 | > 100 | > 100 | > 100 | > 100 | 42.2 | > 100 | 8.63 | > 100 |
| CC(=O)C1(Cc2cccc3ccccc23)S(=O)(=O)OCCOS1(=O)=O | 47.7 | 35.7 | 44 | 29.6 | 50.2 | 31.6 | 34 | 39.2 | 28.8 | 32.5 | 49.2 | 48.4 | 56.7 | 41.2 | 20.5 | 30.6 | 44 | 44.8 | 65.4 | > 100 |
| CCN1CCC(O)(c2ccc(Oc3ccccc3)cc2)C(C(=O)c2ccc(Oc3ccccc3)cc2)C1 (stereo not given) | 43.9 | 30.4 | 18.7 | 30.2 | 35.6 | 19.6 | 13.2 | 26.4 | 18.9 | 31.3 | 32.6 | 22.3 | 26.3 | 26.5 | 27.5 | 22.5 | 24.8 | 25.3 | 28.9 | 32.1 |
| CC1OC(OC2C(O)COC(OC3C(C)OC(OC4C(OC(=O)[C@]56CCC(C)(C)C[C@@H]5C5=CCC7[C@@]8(C)C[C@H](O)[C@H](OC9OC(CO)C(O)C(OC%10OC(CO)C(O)C(O)C%10O)C9O)[C@@](C)(CO)[C@@H]8CC[C@@]7(C)[C@]5(C)CC6)OCC(O)C4O)C(O)C3OC3OCC(O)(CO)C3O)C2O)C(O)C(O)C1O (stereo not given in full) | 17.4 | 20.4 | 15.4 | 16.7 | 20.3 | 20.8 | 36.2 | 15.7 | 26.2 | 17.4 | 16.6 | 19.7 | 13 | 14 | 18.6 | 13.3 | 16 | 20.7 | 21.3 | 30.1 |
| O=[N+]([O-])c1c(F)c(F)c2c(c1F)Nc1ccccc1S2 | 10.9 | 30.4 | 21.6 | 4.76 | 6 | 6.96 | 41.8 | 6.28 | 15.5 | 26.5 | 19.2 | 31 | 10.4 | 5.74 | 34.2 | 25.8 | 5.61 | 27.6 | 32.6 | 6.57 |
| O=C1C(N2CCN(c3ccccn3)CC2)=C(Cl)C(=O)c2ncccc21 | 1.03 | > 10 | 3.21 | > 7.14 | > 10 | > 6.52 | > 10 | 2.78 | > 5.95 | > 10 | > 10 | 2.94 | 3.82 | > 7.95 | > 10 | > 10 | > 6.21 | > 10 | > 10 | 5.99 |
| CC(=O)OC/C=C/[C@H](O[Si](C)(C)C(C)(C)C)[C@@H](O)/C=C/COC(C)=O | > 100 | > 100 | > 100 | > 100 | > 100 | > 100 | > 100 | > 100 | > 100 | > 100 | > 100 | > 100 | > 100 | > 100 | > 100 | > 100 | 86.2 | > 100 | > 100 | 54.8 |
| COc1c2cc(C(C)(C)C)cc1Cc1cccc(c1OCc1cccc([N+](=O)[O-])c1)Cc1cc(C(C)(C)C)cc(c1OC)Cc1cccc(c1OCc1cccc([N+](=O)[O-])c1)Cc1cc(C(C)(C)C)cc(c1OC)Cc1cccc(c1OCc1cccc([N+](=O)[O-])c1)C2 | > 50 | > 50 | > 50 | > 50 | > 50 | > 50 | > 50 | > 50 | > 50 | > 50 | > 50 | > 50 | > 50 | > 50 | > 50 | > 50 | > 50 | > 50 | > 50 | > 50 |
